From ChEMBL document CHEMBL4196242, “Irpeksins A-E, 1,10- seco-Eburicane-Type Triterpenoids from the Medicinal Fungus Irpex lacteus and Their Anti-NO Activity” (J Nat Prod, 2018) come the findings set out here.

This test has as its system RAW264.7. Description: Inhibition of LPS-induced nitric oxide production in mouse RAW264.7 cells after 18 hrs by Griess assay. The class given is functional, cell-based. As to conditions: RAW264.7, 18 h.

One may read the IC50 as the point on the concentration scale where inhibition reaches its midpoint. Read a low IC50 as greater potency.

`CC1=C(C)[C@@]2(C[C@@H](C)[C@H]3[C@H](C[C@@]4(C)c5ccc(C(C)(C)/C=C/C(=O)O)c(C)c5C(=O)C[C@]34C)O2)OC1=O` displayed an IC50 of 17.9 µM.
Next, `CC1=C(C)[C@@]2(C[C@@H](C)[C@H]3[C@H](C[C@@]4(C)c5ccc(C(C)(C)/C=C/C(=O)O)c(C)c5[C@H](O)C[C@]34C)O2)OC1=O`: 4.5 µM.
With `CNC(=N)NCCC[C@H](N)C(=O)O` [TILARGININE] the figure was 32.9 µM.
Compound `CC1=C(C)[C@@]2(C[C@@H](C)[C@H]3[C@H](C[C@@]4(C)c5ccc(C(C)(C)/C=C/CO)c(C)c5O[C@H](O)C[C@]34C)O2)OC1=O` displayed an IC50 of 19.6 µM.
The compound `CC1=C(C)[C@@]2(C[C@@H](C)[C@H]3[C@H](C[C@@]4(C)c5ccc(C(C)(C)/C=C/CO)c(C)c5C(=O)C[C@]34C)O2)OC1=O` displayed a concentration for half-maximal inhibition (IC50) of 2.2 µM.
Next, `CC1=C(C)[C@@]2(C[C@@H](C)[C@H]3[C@H](C[C@@]4(C)c5ccc(C(C)(C)CCCO)c(C)c5C(=O)C[C@]34C)O2)OC1=O`: 12.8 µM.
